Entries after “also recorded” stand apart in the source; their conditions may differ.
How the values were obtained:
[1] = tested on: TNF-α secretion by activated splenocytes; experiment: TNF-α cytokine suppression assay, MSC co-culture with LPS or PHA-activated splenocytes; format: cell-based, mouse; conditions: 10 μM; for effect on the ability of shear treated MSC to suppress TNF-α production: six MSC donor lines
Description: FIG. 22 illustrates TNF-α cytokine suppression assays that highlight functional enhancement of MSC immunomodulation. Human MSCs preconditioned by mechanical force (15 dyne/cm2 shear stress for 3 hrs) are placed in static co-culture with lipopoly-saccharide (LPS) or phytohaemagglutinin (PHA)-activated splenocytes including macrophages, neutrophils, NK, B, and T cells. […] Lower values correspond to greater anti-inflammatory potency. hBM MSC, human bone marrow MSC; hAF MSC, amniotic fluid MSC (indicated by a “*” in graph); hAD MSC, adipose-derived MSC (indicated by a “^” in graph). P-values calculated by paired t-test, equal variance.
(§1) Similarly it was determined utilizing commercially available ELISAs that the media from human MSCs cultures that had been subject to fluid shear stress also contained immunomodulatory proteins, such as prostaglandin E2. In addition, Western blotting confirmed elevated protein levels (translation) of COX2, TSG6, and IL1RN. Actin protein expression levels, which are constant, were used as a control for baseline protein expression. […] It was also determined that this induction could be abrogated by the addition of 10 uM of the NF-kappaB antagonist BAY11-7085 (FIG. 21). Furthermore by utilizing commercially available ELISAs, it was determined that the media from human MSCs cultures that had been subject to fluid shear stress for as little as 3 hours had immunosuppressive activity, as evidenced by the 10-50% reduction in TNF-α when treated hMSCs were co-cultured with activated immune cells from the spleen (FIG. 22).

human amniotic fluid MSC = experiment: Priming agents combined with shear stress, anti-inflammatory signaling in hAF MSC; format: cell-based
Procedure: FIG. 24 illustrates that priming agents complement shear-induced anti-inflammatory signaling. Darkened bars represent treatment combinations that indicate a substantial induction of the pathway by shear stress and cytokines (IFN-γ, 20 ng/ml; TNF-α, 50 ng/ml). In this low-performance human amniotic MSC line, TSG6 was induced by shear stress only. IDO was induced by IFN-γ only. hAF MSC, human amniotic fluid MSC.
as §1

[2] = tested on: COX2 protein in human MSC; experiment: Western blot of intracellular COX2 protein in shear stressed MSCs; format: cell-based; conditions: 10 μM, 8 hours of fluid shear stress
Procedure: A pilot study was conducted to provide proof of principle that fluid shear stress can be used to condition stem cells, alter gene expression, and enhance functional activities. To exemplify the conditioning activity of shear stress of the type provided by the present system, but on a much smaller analytical scale, force (shear stress) was applied using custom fabricated slides or IBIDI® small-scale microfluidics channel slides obtained from IBIDI, LLC. (Verona, Wis., USA). Human samples were harvested from bone marrow (BM), amniotic fluid (AF), or adipose (AD) tissue, processed for isolation and expansion of hMSC, and stored frozen. Frozen hMSCs were thawed and seeded into T225 cell culture flasks with 50 ml Minimum Essential Medium (MEM-α) (20% FBS, 5% Penicillin/Streptomycin, 5% Glutamine). The media was replaced every 3-4 days. hMSCs were maintained in culture until they were almost 100% confluent. […] The number of live cells present was determined using trypan blue dye exclusion. Live cell counts were determined on a hemacytometer and the cells were resuspended to obtain the desired concentration for each assay (see Table 1). […]
Similarly it was determined utilizing commercially available ELISAs that the media from human MSCs cultures that had been subject to fluid shear stress also contained immunomodulatory proteins, such as prostaglandin E2. […]

Compound: COc1ccc2c(c1)c(CC(=O)O)c(C)n2C(=O)c1ccc(Cl)cc1 [Indomethacin]
- effect on the ability of shear treated MSC to suppress TNF-α production [1]: abrogate the positive effects of shear stress

Compound: IFN-γ: cytokine priming agent, 20 ng/ml
- induction of COX2 and HMOX1 in sheared MSCs with added priming agent (human amniotic fluid MSC; IFN-γ 20 ng/ml plus shear stress): greater induction
- IDO induction (human amniotic fluid MSC; IFN-γ 20 ng/ml, low-performance human amniotic MSC line): induced

Compound: CC(C)(C)c1ccc(S(=O)(=O)/C=C/C#N)cc1 [BAY11-7085]
- effect on shear-induced COX2 protein [2]: abrogated; also recorded: reduced
- effect on the ability of shear treated MSC to suppress TNF-α production [1]: abrogate the positive effects of shear stress

Compound: CCCCC(C)(C)C(O)C=CC1C(O)CC(=O)C1CC=CCCCC(=O)O (stereo not shown) [dmPGE2, 16,16′-dimethyl prostaglandin E2]
- effect of ectopic agent on TNF-α production ([1]; compared with sheared MSCs): reduced TNF-α to levels produced in the presence of sheared MSCs; also recorded: mimics MSC suppression

Compound: CS(=O)(=O)Nc1ccc([N+](=O)[O-])cc1OC1CCCCC1 [NS-398]
- effect on the ability of shear treated MSC to suppress TNF-α production [1]: abrogate the positive effects of shear stress

From patent US11162063B2, “Methods and apparatus for conditioning cell populations for cell therapies” (THE BOARD OF REGENTS OF THE UNIVERSITY OF TEXAS SYSTEM, priority 2015, dated 2021)
